# Measured values as given in patent publication US20210023012A1, “Solid Pharmaceutical Compositions for Treating HCV” (AbbVie Inc., priority 2019, published 2021).
# Key:
# [1] = Phase 1 single-dose crossover: bioavailability and food effect of Compound 1/Compound 2 bilayer tablets; assay type: in vivo, human; conditions: for Cmax / AUC(0-inf) / AUC(0-t) / half-life / Tmax: human, in vivo, oral, N = 23; for Cmax / AUC(0-inf) / AUC(0-t): geometric mean; for half-life: harmonic mean; for Tmax: median
# Method: Phase 1, single-dose, four-period, randomized, complete crossover clinical trials were conducted to determine the bioavailability and food effect of the Compound 1/Compound 2 film-coated bilayer tablets. Tablets described in Table 1b were used in Regimens A, B and C, and separate tablets containing either Compound 1 or Compound 2 were used in Regimen D. Subjects took a single dose of Compound 1/Compound 2 on Day 1 of each Period. There was a washout of 4 days between doses. • i. Regimens A and D: study drugs were taken under fasting conditions. • ii. Regimen B: study drugs were taken approximately 30 minutes after start of moderate-fat breakfast (about 30% calories from fat). • iii. Regimen C: study drugs were taken approx. 30 minutes after start of high-fat breakfast (50% calories from fat). For Regimens A, B and C, the single dose consisted of three tablets of Table 1b, each tablet contains 100 mg/40 mg Compound 1/Compound 2. For Regimen D, the single dose contained three tablets of Compound 1, each of which contained 100 mg Compound 1, as well as three tablets of Compound 2, each of which contained 40 mg Compound 2. [table] [table]
# [2] = Single-dose crossover: bioavailability of Compound 1/Compound 2 mini-tablets; assay type: in vivo, human; conditions: for Cmax / AUC(0-inf) / AUC(0-t) / half-life / Tmax: human, in vivo, oral, N = 14; for Cmax / AUC(0-inf) / AUC(0-t): geometric mean; for half-life: harmonic mean; for Tmax: median
# Method: In comparison, when administered with food, the mini-tablets provided an AUC that was only 5% lower than that provided by the regular tablets. […] All of the reference AUCs of the regular tablets were measured under fasting conditions.
# 14 subjects were enrolled in this study and dosed with co-formulated Compound 1/Compound 2 in mini-tablets. One subject spilled 4 mini-tablets (out of 100-150 total mini-tablets) during dosing of Period 2 (Regimen G) and was not excluded from the analysis. The mini-tablets were prepared according to a process similar to that described in Example 2.
# [3] = Steady-state pharmacokinetics of film-coated granules in pediatric subjects by age group; assay type: in vivo, human; design: Ctrough: unit not given here; conditions: for Ctrough / AUC: Week 2; for AUC: human, oral, film-coated granules
# Method: The study was designed to assess the steady state AUC and to assess the pharmacokinetics (PK) of Compound 1/Compound 2 in pediatric subjects by age group. […] Subjects were enrolled in this study and dosed with film-coated granules containing Compound 1/Compound 2 as generally described above in Example 3. [table] An intensive PK sample draw was done at the Week 2 visit with blood samples taken immediately prior to dose (0 hour) and at 2, 4, 6, and 12 hours post dose.
# clinical = conditions: human, in vivo
# Excerpt: Target AUC was derived from the geometric mean of AUC values from a population of adult subjects who received Compound 1 and Compound 2.
# [4] = Predicted PK exposures (Pop-PK AUC) in pediatric subjects; assay type: in vivo; design: concentration or dose not given beside the values; conditions: human, oral
# Excerpt: The predicted PK exposures (“Pop-PK AUC”) of Compound 1/Compound 2 based on all PK information collected in the study (including data from other study weeks) is shown in Table 13 and Table 13a.
# [5] = Pharmacokinetic properties in healthy subjects; assay type: in vivo, human; conditions: for Tmax: oral, median, single doses
# [6] = Binding to human plasma proteins; assay type: in vitro ADME; conditions: read-out: % Bound to human plasma proteins (converted)
# Blood-to-plasma ratio = assay type: in vitro ADME; conditions: human, whole blood/plasma
# [7] = Mass balance studies with [14C] compound, single dose; assay type: in vivo, human; conditions: single dose of [14C] compound
# [8] = Phase 1 single-dose crossover: bioavailability and food effect of Compound 1/Compound 2 bilayer tablets; assay type: in vivo, human; conditions: film-coated vs uncoated bilayer tablets, additional studies
# [9] = Regimen A: single dose bilayer tablets 300 mg/120 mg, fasting
# [10] = Regimen B: single dose bilayer tablets 300 mg/120 mg with moderate fat breakfast
# [11] = Regimen C: single dose bilayer tablets 300 mg/120 mg with high fat breakfast
# [12] = Regimen D: single dose separate Compound 1 tablets (3 × 100 mg) and Compound 2 tablets (3 × 40 mg), fasting
# [13] = Regimen F: single dose mini-tablets 200 mg/120 mg, fasting
# [14] = Regimen G: single dose mini-tablets 200 mg/120 mg, non-fasting
# [15] = Regimen J: two Compound 1 tablets (100 mg each) and three Compound 2 tablets (40 mg each), fasting
# [16] = mean systemic exposure with moderate to high fat meals
structure (smiles),measurement,setting,value
COC(=O)N[C@H](C(=O)N1CCC[C@H]1c1nc2cc([C@H]3CC[C@H](c4cc5nc([C@@H]6CCCN6C(=O)[C@@H](NC(=O)OC)[C@@H](C)OC)[nH]c5cc4F)N3c3cc(F)c(N4CCC(c5ccc(F)cc5)CC4)c(F)c3)c(F)cc2[nH]1)[C@@H](C)OC [Compound 2],Effect of administration with food on bioavailability,[1]; bilayer tablets,significantly improved
same,Cmax,"[1]; Regimen A: single dose bilayer tablets 300 mg/120 mg (3 × 100 mg/40 mg), fasting",116 ng/mL
same,AUC(0-inf),[1]; [9],960 ng·h/mL
same,AUC(0-t),[1]; [9],910 ng·h/mL
same,half-life,[1]; [9],13.3 h
same,Tmax,[1]; [9],4 h
same,AUC(0-inf),[1]; [10],1350 ng·h/mL
same,AUC(0-t),[1]; [10],1280 ng·h/mL
same,Cmax,[1]; [10],221 ng/mL
same,half-life,[1]; [10],13 h
same,Tmax,[1]; [10],5 h
same,AUC(0-inf),[1]; [11],1460 ng·h/mL
same,AUC(0-t),[1]; [11],1390 ng·h/mL
same,Cmax,[1]; [11],237 ng/mL
same,half-life,[1]; [11],13.5 h
same,Tmax,[1]; [11],5 h
same,AUC(0-inf),[1]; [12],1490 ng·h/mL
same,AUC(0-t),[1]; [12],1420 ng·h/mL
same,Cmax,[1]; [12],175 ng/mL
same,half-life,[1]; [12],12.5 h
same,Tmax,[1]; [12],4 h
same,Effect of administration with food on bioavailability,[2]; co-formulated mini-tablets,significantly increased
same,Cmax,"[2]; Regimen F: single dose mini-tablets 200 mg/120 mg Compound 1/Compound 2, fasting",96 ng/mL
same,AUC(0-inf),[2]; [13],913 ng·h/mL
same,AUC(0-t),[2]; [13],863 ng·h/mL
same,half-life,[2]; [13],13.4 h
same,Tmax,[2]; [13],4 h
same,Cmax,"[2]; Regimen G: single dose mini-tablets 200 mg/120 mg Compound 1/Compound 2, non-fasting",177 ng/mL
same,AUC(0-inf),[2]; [14],1320 ng·h/mL
same,AUC(0-t),[2]; [14],1250 ng·h/mL
same,half-life,[2]; [14],13.2 h
same,Tmax,[2]; [14],3 h
same,Cmax,"[2]; Regimen J: single dose two Compound 1 tablets (100 mg each) and three Compound 2 tablets (40 mg each), fasting",139 ng/mL
same,AUC(0-inf),[2]; [15],1260 ng·h/mL
same,AUC(0-t),[2]; [15],1190 ng·h/mL
same,half-life,[2]; [15],13.3 h
same,Tmax,[2]; [15],4.5 h
same,AUC of mini-tablets higher than that of regular tablets (fasting),"[2]; mini-tablets with food, 120 mg Compound 2",6%
same,AUC of mini-tablets lower than that of regular tablets (fasting),"[2]; mini-tablets without food, 200 mg Compound 1 / 120 mg Compound 2, same solid dispersion formulation",28%
same,Ctrough,"[3]; 3 to <6 years old, post-adjustment 150 mg/60 mg, N 10",17.5 (139)
same,Ctrough,"[3]; 6 to <9 years old, post-adjustment 200 mg/80 mg, N 9",20.0 (119)
same,Ctrough,"[3]; 9 to <12 years old, post-adjustment 250 mg/100 mg, N 10",40.8 (194)
same,AUC,"[3]; blood, 3 to <6 years old, pre-adjustment, 3 sachets, 120 mg/45 mg, read-out: AUC, Geometric Mean",871 ng·h/mL
same,AUC,"[3]; blood, 6 to <9 years old, pre-adjustment, 4 sachets, 160 mg/60 mg, read-out: AUC, Geometric Mean",987 ng·h/mL
same,AUC,"[3]; blood, 9 to <12 years old, pre-adjustment, 5 sachets, 200 mg/75 mg Compound 1/Compound 2, read-out: AUC, Geometric Mean",1250 ng·h/mL
same,AUC,"[3]; in vivo, 3 to <6 years old, post-adjustment, 3 sachets, 150 mg/60 mg, N 10, read-out: AUC",1660 ng·h/mL
same,AUC,"[3]; in vivo, 6 to <9 years old, post-adjustment, 4 sachets, 200 mg/80 mg, N 9, read-out: AUC",1520 ng·h/mL
same,AUC,"[3]; in vivo, 9 to <12 years old, post-adjustment, 5 sachets, 250 mg/100 mg Compound 1/Compound 2, N 10, read-out: AUC",2300 ng·h/mL
same,Exposures in children aged 3 to <12 years vs adolescents 12 to <18 years and adults from Phase 2/3 studies,[3]; recommended doses according to body weight,comparable
same,AUC,clinical,1430 ng·h/mL
same,AUC,"[4]; blood, Table 13, 3 to <6 years old, N 10, predicted",1430 ng·h/mL
same,AUC,"[4]; blood, Table 13, 6 to <9 years old, N 9, predicted",1460 ng·h/mL
same,AUC,"[4]; blood, Table 13, 9 to <12 years old, N 10, predicted from all PK information collected in the study",1440 ng·h/mL
same,AUC,"[4]; in vivo, Table 13a, 3 to <6 years old, N 10, predicted",1760 ng·h/mL
same,AUC,"[4]; in vivo, Table 13a, 6 to <9 years old, N 9, predicted",1730 ng·h/mL
same,AUC,"[4]; in vivo, Table 13a, 9 to <12 years old, N 10, predicted",2360 ng·h/mL
same,Metabolism,[5]; Biotransformation,none
same,Major route of elimination,"[5]; human, in vivo",Biliary
same,Tmax,"[5]; human, in vivo, healthy subjects, read-out: Tmax of granules",3 to 5 h
same,Tmax,"[5]; human, in vivo, healthy subjects, read-out: Tmax of tablets",5 h
same,half-life,"[5]; human, in vivo, healthy subjects, read-out: t1/2 at steady-state",23 to 29 h
same,"Effect of meal (relative to fasting) on adult tablets, ↑",[5]; [16],↑ 40-53%
same,"Effect of meal (relative to fasting) on granules, ↑",[5]; [16],↑ 56-115%
same,fraction unbound,[6],< 0.001
same,blood plasma ratio,Blood-to-plasma ratio,0.62
same,% of dose excreted in faeces,[7],96.6%
same,% of dose excreted in urine,[7],0%
same,Impact of film-coating on bioavailability,[8],minimal impact
